Laboratory results published in patent US11203739B2, “Modulating cell proliferation and pluripotency” (Memorial Sloan Kettering Cancer Center, priority 2014, dated 2021).
Entries after “also recorded” stand apart in the source; their conditions may differ.

Tests used:
Format in all cases: cell-based, mouse
ESC-V19 cells = test: Growth curves in glutamine-free medium; conditions: glutamine-free S/L or 2i/L media, 4 mM DM-αKG
Method: (§1) Cell culture. Maintenance media for ES cells were as follows: serum/LIF (S/L) maintenance medium contained Knockout DMEM (Gibco) supplemented with 15% ESC-qualified FBS (Gemini), penicillin/streptomycin (Life Technologies), 0.1 mM 2-mercaptoethanol, L-glutamine (2 mM, Life Technologies) and leukemia inhibitory factor (LIF) plated onto irradiated feeder mouse embryonic fibroblasts (MEFs); 2i/LIF maintenance conditions used a base medium made from a 1:1 mix of DMEM/F12 (Life Technologies 11302-033) and Neurobasal (Life Technologies 21103-049) containing N2 and B27 supplements (Life Technologies 17502-048 and 17504-044, 1:100 dilutions), penicillin/streptromycin, 0.1 mM 2-mercaptoethanol, L-glutamine (2 mM), LIF, CHIR99021 at 3 μM (Stemgent) and PD0325901 at 1 μM (Stemgent). Experimental media utilized for all experiments (except growth curves with and without glucose, ^13C isotope tracing experiments and ^14C labeling experiments) contained 1:1 mix of glutamine-free DMEM (Life Technologies 11960-051) and Neurobasal (Life Technologies 21103-049) with or without 2 mM glutamine. With the exception of 15% dialyzed FBS (Gemini 100-108) in S/L experimental medium, all other supplements were equivalent to maintenance media (S/L or 2i/L). […]
Growth curves. […] Cells were counted each day using a Beckman Coulter Multisizer 4.

ESC-1 cells [1] = test: DNA methylation quantification (% 5mC); conditions: S/L medium, 24 hours
Method: DNA methylation. Genomic DNA was extracted from ESC samples using Puregene Core Kit A (Sigma). DNA methylation was measured using the colorimetric MethylFlash Methylated DNA quantification kit (Epigentek) according to manufacturer instructions.

ESC-1 cells [2] = test: Colony formation (self-renewal) assay with alkaline phosphatase staining; conditions: S/L medium, 4 mM, four days; for number of undifferentiated colonies: compared to S/L and the other treatment
Method: Self-renewal assays. ES cells free of feeder MEFs were plated at 100 cells per well in 6-well plates coated with 20 μg/mL mouse laminin (Stemgent 06-0002) in maintenance S/L medium. The following day media was changed to S/L experimental medium containing dimethyl-α-ketoglutarate (4 mM, Sigma 349631), dimethyl-succinate (4 mM, Sigma W239607) or DMSO vehicle control. Four days later cells were washed with PBS and stained for alkaline phosphatase using Vector Red Alkaline Phosphatase Kit (Vector Labs) according to manufacturer's instructions.

Nanog-GFP ESCs = test: Nanog-GFP reporter FACS; conditions: S/L medium, three days
Method: FACS. Nanog-GFP ESCs^8 were cultured in S/L experimental medium for three passages and 2.5×10^4 cells were plated into a 6-well plate. Twenty-four hours later media was changed to S/L medium containing vehicle control or DM-AKG. Media was subsequently changed 48 hours later and cells harvested the following day. FACS analysis was performed at The Rockefeller University Flow Cytometry Resource Center using a BD LSR II. Data was generated using FlowJo. Analysis was performed on biological triplicates.

ESC-1 cells [3] = test: qRT-PCR gene expression of ICM and germline-associated genes; conditions: for expression of ICM and germline-associated genes: ESC-1 cells, three days
Method: qRT-PCR. RNA was isolated using the RNeasy kit (Qiagen). After DNase treatment, 1-2 μg RNA was used for cDNA synthesis using the First-Strand Synthesis kit (Invitrogen). Quantitative RT-PCR analysis was performed in biological triplicate using an ABI Prism 7000 (Applied Biosystems) with Platinum SYBR green.

ESC-1 cells [4] = test: Western blot of histone methylation in glutamine-free media with DM-αKG supplementation; conditions: glutamine-free S/L or 2i/L media, 24 hours
Method: as §1

ESC-1 cells [5] = test: GC-MS metabolite profiling, αKG:succinate ratio; conditions: 1 μM or 5 μM, 3 hours; for αKG:succinate ratio: S/L or 2i/L medium
Method: Metabolite profiling. For all metabolite experiments, cells were seeded in their standard culture medium in 6-well plates and the next day were changed into experimental medium. Medium was changed again at the indicated time before harvest (usually 1-24 hours). Metabolites were extracted with 1 mL ice-cold 80% methanol supplemented with 20 μM deuterated 2-hydroxyglutarate (D-2-hydroxyglutaric-2,3,3,4,4-d5 acid, d5-2HG) as an internal standard. After overnight incubation at −80° C., lysates were harvested and centrifuged at 21,000 g for 20 minutes to remove protein. Extracts were dried in an evaporator (Genevac EZ-2 Elite) and resuspended by incubation at 30° C. for 2 hours in 50 μL of 40 mg/mL methoxyamine hydrochloride in pyridine. Metabolites were further derivatized by addition of 80 μL of MSTFA +1% TCMS (Thermo Scientific) and 70 μl ethyl acetate (Sigma) and incubated at 37° C. for 30 minutes. Samples were analyzed using an Agilent 7890A GC coupled to Agilent 5975C mass selective detector. […] Peaks representing compounds of interest were extracted and integrated using MassHunter software (Agilent Technologies) and then normalized to both the internal standard (d5-2HG) peak area and protein content of duplicate samples as determined by BCA protein assay (Thermo Scientific). Ions used for quantification of metabolite levels are as follows: d5-2HG m/z 354; KG, m/z 304; aspartate, m/z 334; citrate, m/z 465; glutamate, m/z 363; malate, m/z 335 and succinate, m/z 247. […] Enrichment of ^13C was assessed by quantifying the abundance of the following ions: αKG, m/z 304-315; aspartate, m/z 334-346; citrate, m/z 465-482; glutamate, m/z 363-377 and malate, m/z 335-347. […] Flux was calculated as the product of the first order rate constant of the kinetic labeling curve and relative metabolite pool size (normalized to mean S/L values for each experiment)^5. The flux from glucose- and glutamine-derived carbons was calculated for each of three independent experiments and the average total flux for each metabolite was shown.

UTX and Jmjd3 = test: Western blot of H3K27 methylation after GSK-J4 treatment; conditions: ESC-1 cells in S/L, increasing amounts of GSK-J4, 24 hours
Method: as §1

UTX/Jmjd3 = test: H3K27me3 ChIP-PCR at bivalent domain promoters; conditions: 30 μM, five hours
Method: Chromatin immunoprecipitation. Native ChIP assays (histones) were performed with approximately 6×10^6 ESCs per experiment. Cells were subject to hypotonic lysis and treated with micrococcal nuclease to recover mono- to tri-nucleosomes. Nuclei were lysed by brief sonication and dialyzed into N-ChIP buffer (10 mM Tris pH 7.6, 1 mM EDTA, 0.1% SDS, 0.1% Na-Deoxycholate, 1% Triton X-100) for 2 hr at 4° C. Soluble material was incubated overnight at 4° C. following addition of 3-5 μg of antibody bound to 75 μL protein A Dynal magnetic beads (Invitrogen), with 5% kept as input DNA. Magnetic beads were washed, chromatin was eluted, and ChIP DNA was dissolved in 10 mM Tris pH 8 for quantitative PCR reactions (see below).
ChIP-qPCR. Primers are listed below. All qPCR was performed using an Applied Biosystems StepOnePlus system and Power SYBR Green PCR master mix. ChIP samples were diluted 1:100 in H2O and 5 μL used per reaction. ChIP-qPCR signals were calculated as percent input.

SMILES: COC(=O)CCC(=O)C(=O)OC [DM-αKG, dimethyl-α-ketoglutarate]
- glutamine-independent proliferation (ESC-V19 cells): sufficient to enable glutamine-independent proliferation in both S/L and 2i/L conditions
- total DNA methylation (% 5mC) (ESC-1 cells [1]): reduced
- colony staining and morphology (brightfield images) (ESC-1 cells [2]): stained brighter and retained a more compact colony morphology
- number of undifferentiated colonies (ESC-1 cells [2]): more than double the number of fully undifferentiated colonies; also recorded: more undifferentiated colonies than vehicle or DM-succinate treated wells
- Nanog expression detected by GFP fluorescence (Nanog-GFP ESCs): sufficient to enhance Nanog expression in a dose-dependent manner
- effects on gene expression in Tet1/Tet2 double knockout ES cells (ESC-1 cells [3]; 72 hours): largely abrogated in Tet1/Tet2 double knockout ES cells
- expression of ICM and germline-associated genes (ESC-1 cells [3]): induced expression of ICM and germline-associated genes
- effects on gene expression upon extended passaging (ESC-1 cells [3]; S/L medium, 24 hours or four passages): persisted upon extended passaging
- H3K27me3 and H4K20me3 levels (Western blot) (ESC-1 cells [4]): reversed the increase in H3K27me3 and H4K20me3

SMILES: CCOC(=O)CCNc1cc(N2CCc3ccccc3CC2)nc(-c2cccnc2)n1 [GSK-J5]
- αKG:succinate ratio (ESC-1 cells [5]): had no effect

SMILES: CCOC(=O)CCNc1cc(N2CCc3ccccc3CC2)nc(-c2ccccn2)n1 [GSK-J4]
- H3K27me1 level (Western blot) (UTX and Jmjd3): concomitant reduction of H3K27me1
- H3K27me3 level (Western blot) (UTX and Jmjd3): dose-dependent increase in H3K27me3
- H3K27me3 at bivalent domain promoters (UTX/Jmjd3; ESC-1 cells in 2i/L medium): consistent increase in H3K27me3 at bivalent domain promoters
- H3K27me3 at bivalent domain promoters (UTX/Jmjd3; ESC-1 cells in S/L medium): did not change
- absolute and relative increase in the αKG:succinate ratio, 2i/L compared with S/L (ESC-1 cells [5]): more pronounced in the cells grown in 2i/L medium
- αKG:succinate ratio (ESC-1 cells [5]): triggered increases in the αKG:succinate ratio

SMILES: COC(=O)CCC(=O)OC [DM-succinate, dimethyl-succinate]
- predominant colony types (ESC-1 cells [2]): either mixed or differentiated
- number of undifferentiated colonies (ESC-1 cells [2]): reproducible trend of fewer undifferentiated and more differentiated colonies
- expression of ICM and germline-associated genes (ESC-1 cells [3]): not
